In assay [1] the target is T1, human thyroid receptor alpha ligand-binding domain (LBD) (Homo sapiens, UniProt P10827).
T1 construct: purchased Invitrogen
In words: TR-FRET thyroid receptor alpha coactivator assay (THR biochemical assay, Assay 1). Conditions: for EC50: Table 4, THR-alpha, read-out: Activity category Assay 1 (EC50, THR-alpha agonist activity); for Emax: Table 5, THRα, read-out: Activity category Assay 1 THRα (Emax). The gist of the method: (§1)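 Agonist-driven coactivator recruitment measured by TR-FRET: terbium anti-GST antibody (2 nM) bound to GST-LBD of TRβ or TRα (1 nM final, stated for β), with fluorescein SRC2-2 peptide at 200 nM. Compounds at 1% DMSO. Read after 1 h, room temperature, protected from light.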
A general note: TR-FRET usually uses a lanthanide donor and a delayed reading to cut background.

Assay [2] concerns the target T2, human thyroid receptor beta ligand-binding domain (LBD) (Homo sapiens, UniProt P10828).
T2 construct: purchased Invitrogen
T2 sequence (P10828 217-461 limits assumed): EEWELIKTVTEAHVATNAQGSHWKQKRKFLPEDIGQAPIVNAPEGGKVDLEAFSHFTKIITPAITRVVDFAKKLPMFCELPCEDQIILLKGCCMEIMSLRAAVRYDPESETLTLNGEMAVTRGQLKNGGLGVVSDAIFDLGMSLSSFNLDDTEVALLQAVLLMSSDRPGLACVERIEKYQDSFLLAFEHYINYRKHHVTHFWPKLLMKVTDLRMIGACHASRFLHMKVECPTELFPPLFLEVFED
In words: TR-FRET thyroid receptor beta coactivator assay (THR biochemical assay, Assay 1). Conditions: for EC50: THR-beta, TR-FRET coactivator assay, read-out: Activity category Assay 1 (EC50, THR-beta agonist); for Emax: Table 5, Assay 1, THRβ, read-out: Activity category Assay 1 THRβ (Emax). The gist of the method:
as §1

The target in a further assay is T3, THR beta (Homo sapiens, UniProt P10828).
T3 construct: expressed in transfected cells; host or cells: HEK293T (ATCC CRL-3216)
T3 sequence (P10828 1-461): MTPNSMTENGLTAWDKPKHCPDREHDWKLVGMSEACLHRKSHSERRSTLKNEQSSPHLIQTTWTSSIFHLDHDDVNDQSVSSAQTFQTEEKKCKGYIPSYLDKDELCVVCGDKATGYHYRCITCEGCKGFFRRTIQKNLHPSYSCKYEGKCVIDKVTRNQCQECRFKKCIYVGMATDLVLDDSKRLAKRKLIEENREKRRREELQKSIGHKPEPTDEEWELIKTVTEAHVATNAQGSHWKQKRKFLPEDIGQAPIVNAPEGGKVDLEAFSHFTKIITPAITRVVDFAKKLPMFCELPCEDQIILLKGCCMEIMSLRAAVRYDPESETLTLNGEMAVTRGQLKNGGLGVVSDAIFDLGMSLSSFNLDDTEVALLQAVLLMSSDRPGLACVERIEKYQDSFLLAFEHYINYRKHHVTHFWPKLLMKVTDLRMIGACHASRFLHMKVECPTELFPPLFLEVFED
T3 sequence (P19793 1-462 partner): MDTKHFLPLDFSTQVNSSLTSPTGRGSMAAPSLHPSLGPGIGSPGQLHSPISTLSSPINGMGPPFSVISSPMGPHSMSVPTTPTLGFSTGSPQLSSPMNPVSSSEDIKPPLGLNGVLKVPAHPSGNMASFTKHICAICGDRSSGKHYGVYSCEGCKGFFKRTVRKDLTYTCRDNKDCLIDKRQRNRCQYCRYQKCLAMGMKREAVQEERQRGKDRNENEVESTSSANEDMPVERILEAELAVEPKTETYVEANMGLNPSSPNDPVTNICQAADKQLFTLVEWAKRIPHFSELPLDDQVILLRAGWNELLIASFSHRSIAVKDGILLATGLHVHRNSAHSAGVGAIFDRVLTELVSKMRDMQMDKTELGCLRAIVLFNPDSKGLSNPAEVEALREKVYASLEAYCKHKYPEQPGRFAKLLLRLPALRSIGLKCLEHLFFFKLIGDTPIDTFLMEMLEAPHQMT
The assay can be described thus: HEK293T THR beta/RXR luciferase reporter assay (Assay 2). Type of assay: cell-based. The following applies: for Emax: HEK-293T, Table 5, Assay 2, THRβ, read-out: Activity category Assay 2 THRβ (Emax); for EC50: THR-beta, HEK293T reporter assay, read-out: Activity category Assay 2 (EC50, THR-beta agonist). The method in brief: (§2)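 Compounds tested as ten-point five-fold dilution series for 18-24 h on transiently transfected HEK293T cells carrying TRE-driven luciferase plus RXR and either THR alpha or beta expression plasmids. Read-out by One-Glo luminescence, expressed as percent agonism relative to negative and positive controls.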
A general note: Reporter assays use an easily measured gene product as a stand-in for the process of interest.

The target of the next assay is T4, THR alpha (Homo sapiens, UniProt P10827).
T4 construct: expressed in transfected cells; host or cells: HEK293T (ATCC CRL-3216)
T4 sequence (P10827 1-410 isoform P10827-2): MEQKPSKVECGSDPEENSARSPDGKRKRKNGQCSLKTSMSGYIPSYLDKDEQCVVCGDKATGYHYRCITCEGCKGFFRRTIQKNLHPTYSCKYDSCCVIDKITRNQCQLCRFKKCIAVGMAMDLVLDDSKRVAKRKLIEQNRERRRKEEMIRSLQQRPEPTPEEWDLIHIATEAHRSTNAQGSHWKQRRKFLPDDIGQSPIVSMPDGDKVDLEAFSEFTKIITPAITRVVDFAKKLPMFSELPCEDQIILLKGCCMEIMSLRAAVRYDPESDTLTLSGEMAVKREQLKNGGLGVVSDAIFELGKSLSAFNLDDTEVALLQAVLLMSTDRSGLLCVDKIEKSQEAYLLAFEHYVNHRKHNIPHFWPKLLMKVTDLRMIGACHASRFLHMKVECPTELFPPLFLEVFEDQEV
T4 sequence (P19793 1-462 partner): T3 sequence (P19793 1-462 partner)
In words: HEK293T THR alpha/RXR luciferase reporter assay (Assay 2). Type of assay: cell-based. Conditions: Assay 2; for Emax: HEK-293T, Table 5, THRα, read-out: Activity category Assay 2 THRα (Emax); for EC50: Table 4, THR-alpha, read-out: Activity category Assay 2 (EC50, THR-alpha agonist activity). The gist of the method:
as §2

As for `C=C(C)c1cc(Oc2c(Cl)cc(-n3nc(N)c(=O)[nH]c3=O)cc2Cl)n[nH]c1=O` [Compound 60-A, 6-amino-2-(3,5-dichloro-4-[[6-oxo-5-(prop-1-en-2-yl)-1H-pyridazin-3-yl]oxy]phenyl)-4H-1,2,4-triazine-3,5-dione], the EC50 (commonly the concentration at which the effect is half-maximal) in assay [1] is 0.05 to 0.25 µM; in assay [2], less than 0.05 µM; on THR beta it was 0.25 to 1 µM; on THR alpha it was 0.25 to 1 µM. The Emax (usually the greatest response seen or fitted, relative to the assay's reference) in assay [1] was less than 50%; in assay [2], less than 50%; at THR beta, 50 to 75%; on THR alpha, less than 50%.

For the compound `Nc1nn(-c2cc(Cl)c(Oc3cc(C4(F)CCCC4)c(=O)[nH]n3)c(Cl)c2)c(=O)[nH]c1=O` [Compound 144, 6-amino-2-(3,5-dichloro-4-[[5-(1-fluorocyclopentyl)-6-oxo-1H-pyridazin-3-yl]oxy]phenyl)-4H-1,2,4-triazine-3,5-dione], the EC50 in assay [1] was in the range of 0.25 to 1 µM; in assay [2], 0.05 to 0.25 µM; on THR beta it was 0.25 to 1 µM; on THR alpha, 1 to 10 µM. Further, the Emax was less than 50% in assay [1], less than 50% in assay [2], 50 to 75% at THR beta and 50 to 75% at THR alpha.

On to `CC(c1c[nH]c2ccc(Oc3c(Cl)cc(-n4nc(C#N)c(=O)[nH]c4=O)cc3Cl)cc12)C(F)(F)F` (stereo not drawn) [Compound 45, 2-(3,5-dichloro-4-[[3-(1,1,1-trifluoropropan-2-yl)-1H-indol-5-yl]oxy]phenyl)-3,5-dioxo-4H-1,2,4-triazine-6-carbonitrile], for which the EC50 in assay [1] is less than 0.05 µM; in assay [2] it was less than 0.05 µM; at THR beta it was 0.05 to 0.25 µM; on THR alpha, 0.25 to 1 µM. Besides, the maximal effect (Emax) in assay [1] was less than 50%; in assay [2], less than 50%; at THR beta, greater than 75%; on THR alpha it was greater than 75%.

In the case of `CCCCCc1n[nH]c2ccc(Cc3c(C)cc(-n4nc(C#N)c(=O)[nH]c4=O)cc3C)cc12` [Compound 32], the EC50 was less than 0.05 µM in assay [1], less than 0.05 µM in assay [2], 0.05 to 0.25 µM at THR beta and 0.05 to 0.25 µM at THR alpha. The maximal effect (Emax) in assay [1] is 50 to 75%; in assay [2] it was greater than 75%; on THR beta, greater than 75%; at THR alpha it was greater than 75%.

As for `N#CC1CCC1c1cc(Oc2c(Cl)cc(-n3nc(N)c(=O)[nH]c3=O)cc2Cl)n[nH]c1=O` (stereo not drawn) [Compound 104], the half-maximal effective concentration (EC50) was 1 to 25 µM in assay [1], 0.25 to 1 µM in assay [2], 1 to 10 µM at THR beta and greater than 10 µM at THR alpha. In addition, the Emax in assay [1] was 50 to 75%; in assay [2], less than 50%; on THR beta, 50 to 75%; at THR alpha, less than 50%.

Consider `CC1(C)CC(c2cc(Oc3c(Cl)cc(-n4nc(N)c(=O)[nH]c4=O)cc3Cl)n[nH]c2=O)CCO1` (stereo not drawn) [Compound 76, 6-Amino-2-(3,5-dichloro-4-((5-(2,2-dimethyltetrahydro-2H-pyran-4-yl)-6-oxo-1,6-dihydropyridazin-3-yl)oxy)phenyl)-1,2,4-triazine-3,5(2H, 4H)-dione], for which the half-maximal effective concentration (EC50) in assay [1] was greater than 25 µM; in assay [2], 1 to 25 µM; at THR beta it was 0.25 to 1 µM; at THR alpha, greater than 10 µM. Further, the Emax is less than 50% in assay [1], less than 50% in assay [2], 50 to 75% on THR beta and less than 50% on THR alpha.

On to `CCCc1c[nH]c2ccc(Oc3c(Cl)cc(-n4nc(C#N)c(=O)[nH]c4=O)cc3Cl)cc12` [Compound 48, 2-[3,5-dichloro-4-[(3-propyl-1H-indol-5-yl)oxy]phenyl]-3,5-dioxo-4H-1,2,4-triazine-6-carbonitrile], for which the EC50 was less than 0.05 µM in assay [1], less than 0.05 µM in assay [2], 0.05 to 0.25 µM at THR beta and 0.25 to 1 µM on THR alpha. Moreover, the Emax is 50 to 75% in assay [1], 50 to 75% in assay [2], greater than 75% at THR beta and greater than 75% at THR alpha.

Consider `N#Cc1nn(-c2cc(Cl)c(Oc3ccc4[nH]cc(C5CCCC5)c4c3)c(Cl)c2)c(=O)[nH]c1=O` [Compound 5, 2-[3,5-dichloro-4-[(3-cyclopentyl-1H-indol-5-yl)oxy]phenyl]-3,5-dioxo-4H-1,2,4-tri-azine-6-carbonitrile], for which the EC50 was greater than 25 µM in assay [1], less than 0.05 µM in assay [2], 0.25 to 1 µM at THR beta and 1 to 10 µM at THR alpha. Also, the maximal response (Emax) in assay [1] is less than 50%; in assay [2], less than 50%; on THR beta, greater than 75%; at THR alpha, 50 to 75%.

In the case of `Cc1cc(-c2cc(Oc3c(Cl)cc(-n4nc(N)c(=O)[nH]c4=O)cc3Cl)n[nH]c2=O)ccc1Cl` [Compound 116], the EC50 in assay [1] was greater than 25 µM; in assay [2], 0.05 to 0.25 µM; at THR beta, 0.05 to 0.25 µM; at THR alpha, greater than 10 µM. Besides, the maximal response (Emax) (in assay [1]; in assay [2]; at THR beta; at THR alpha) was less than 50% in each case.

On to `N#Cc1nn(-c2cc(Cl)c(Oc3ccc4[nH]cc(C#N)c4c3)c(Cl)c2)c(=O)[nH]c1=O` [Compound 17, 5-[2,6-dichloro-4-(6-cyano-3,5-dioxo-4H-1,2,4-triazin-2-yl)phenoxy]-1H-indole-3-carbonitrile], for which the EC50 in assay [1] was greater than 25 µM; in assay [2], less than 0.05 µM; at THR beta, 1 to 10 µM; at THR alpha, greater than 10 µM. The Emax is less than 50% in assay [1], less than 50% in assay [2], greater than 75% at THR beta and less than 50% on THR alpha.

On to `Cc1cc(-n2nc(C#N)c(=O)[nH]c2=O)cc(C)c1Cc1ccc2[nH]nc(C(C)C)c2c1` [Compound 57, 2-(4-((3-Isopropyl-1H-indazol-5-yl)methyl)-3,5-dimethylphenyl)-3,5-dioxo-2,3,4,5-tetrahydro-1,2,4-triazine-6-carbonitrile], for which the concentration for a half-maximal effect (EC50) is less than 0.05 µM in assay [1], less than 0.05 µM in assay [2], 0.05 to 0.25 µM on THR beta and 0.25 to 1 µM on THR alpha. In addition, the Emax in assay [1] is less than 50%; in assay [2] it was less than 50%; on THR beta, greater than 75%; on THR alpha it was greater than 75%.

In the case of `N#Cc1nn(-c2cc(Cl)c(Oc3ccc4[nH]cc(Cc5ccccc5)c4c3)c(Cl)c2)c(=O)[nH]c1=O` [Compound 46, 2-[4-[(3-benzyl-1H-indol-5-yl)oxy]-3,5-dichlorophenyl]-3,5-dioxo-4H-1,2,4-triazine-6-carbonitrile], the half-maximal effective concentration (EC50) in assay [1] was greater than 25 µM; in assay [2] it was less than 0.05 µM; on THR beta, 1 to 10 µM; on THR alpha it was greater than 10 µM. Further, the Emax in assay [1] is less than 50%; in assay [2], less than 50%; at THR beta, 50 to 75%; at THR alpha, less than 50%.

(Values after patent publication US12180192B2, “Modulators of THR-β and methods of use thereof” (ALIGOS THERAPEUTICS, INC., priority 2019, dated 2024).)
